Test results taken from US20040019082A1, “Reversible infertility in male mice following oral administration of alkylated imino sugars: a non-hormonal approach to male contraception” (United Therapeutics Corporation, priority 2002, published 2004).

Columns and labels:
Assay type in all cases: in vivo, mouse
male C57BL/6 mice = assay: Mating assay, fertility of male mice; conditions: 250 mg/kg/day
Text: Treatment of mice—Male C57BL/6 mice were housed under standard non-sterile conditions. The mice were provided with water ad lib. and prior to drug administration were fed a diet of pelleted mouse chow (expanded Rat and Mouse Chow 3, SDS Ltd.) To administer the compounds of the present invention, the mice were fed a diet of powdered mouse chow (expanded Rat and Mouse Chow 1, ground, SDS Ltd.) containing either NB-DNJ, NB-DGJ, NN-6-MeDGJ, or DNJ. The diet and compound (both as dry solids) were mixed thoroughly, stored at room temperature, and used within 7 days of mixing.
Mating assays—To assess the fertility of male mice that were fed on a diet containing an iminosugar, a mating assay was used: typically six week old male C57BL/6 mice in groups of three were administered diet containing compound for five weeks (unless otherwise specified), after which each of them was caged with four untreated female C57BL/6 mice, and provided with standard pelleted chow. Females were at least 11 weeks old, and age-matched in each experiment. The male was removed from the females after 7 or 9 days, depending on the experiment; the females were monitored for vaginal mucous plugs, pregnancies, and, if any, litter sizes. To study any effect on female fertility six-week-old female C57BL/6 mice were treated with NB-DNJ for five weeks, after which each of them was caged with a non-treated age-matched male for four days.

[1] = Body, gonad and organ weights of treated mice
liver glycogen = assay: Liver glycogen levels in fed or starved mice; conditions: 250 mg/kg/day
Experimental: Liver glycogen levels were measured in untreated and NN-DGJ-treated mice (FIG. 6B), who were either provided food or starved.

With `CCCCCCCCCN1C[C@H](O)[C@@H](O)[C@@H](O)[C@H]1CO` [NN-DGJ] the “fertility of male mice” value (male C57BL/6 mice; after five weeks of treatment, four treated mice) was “completely suppressed”, the “litter size compared with untreated males” value (male C57BL/6 mice; six weeks after withdrawal) was “almost the same” and the “fertility of male mice after withdrawal” value (male C57BL/6 mice; six weeks following withdrawal) was “fully regained fertility”. For the same compound, the “thymus and spleen weights” value ([1]; 250 mg/kg/day) was “did not affect”, the “body weight relative to untreated mice” value ([1]; 250 mg/kg/day over a 40 day period, n=8) was “did not affect” and the “breakdown of liver glycogen during starvation” value (liver glycogen) was “did not inhibit”.
